Measured values as given in the NIST ThermoML archive (doi:10.1016/j.tca.2006.05.016).

Key:
[1] = Crystal 2; Adiabatic calorimetry
[2] = Molar enthalpy of transition or fusion; details: Crystal 2; Adiabatic calorimetry
[3] = molar heat capacity at constant pressure; details: 101.33 kPa, Vacuum adiabatic calorimetry

O.O=C([O-])[C@H](O)[C@@H](O)CO.[Na+] [sodium (2R,3S)-2,3,4-trihydroxybutanoate hydrate]
Details	Molar enthalpy of transition or fusion [kcal/mol]	Triple point temperature [K]
[1]	–	311.4
[2]	1.37	–

[3]
Details	molar heat capacity at constant pressure [J/K/mol]
77.95 K, Crystal 2	75
79.37 K, Crystal 2	76.72
81.36 K, Crystal 2	79.56
83.91 K, Crystal 2	84.79
86.36 K, Crystal 2	87.68
88.76 K, Crystal 2	90.45
91.09 K, Crystal 2	93.27
93.36 K, Crystal 2	96.08
95.59 K, Crystal 2	98.2
97.78 K, Crystal 2	100.57
99.92 K, Crystal 2	102.71
102.04 K, Crystal 2	105.14
104.12 K, Crystal 2	107.69
106.16 K, Crystal 2	109.95
108.18 K, Crystal 2	111.9
110.17 K, Crystal 2	113.31
112.13 K, Crystal 2	114.95
114.07 K, Crystal 2	116.19
115.97 K, Crystal 2	117.54
117.86 K, Crystal 2	118.71
119.77 K, Crystal 2	120.32
121.62 K, Crystal 2	121.99
123.51 K, Crystal 2	123.24
125.33 K, Crystal 2	124.71
127.14 K, Crystal 2	125.29
128.86 K, Crystal 2	126.35
130.68 K, Crystal 2	127.87
132.5 K, Crystal 2	128.63
134.24 K, Crystal 2	131.67
135.97 K, Crystal 2	132.68
137.73 K, Crystal 2	133.19
139.48 K, Crystal 2	134.44
141.23 K, Crystal 2	136.19
142.86 K, Crystal 2	137.59
144.61 K, Crystal 2	138.32
146.3 K, Crystal 2	140.73
147.99 K, Crystal 2	140.29
149.61 K, Crystal 2	141.98
151.3 K, Crystal 2	143.95
152.96 K, Crystal 2	145.69
154.61 K, Crystal 2	147.47
156.3 K, Crystal 2	148.86
157.86 K, Crystal 2	150.83
159.54 K, Crystal 2	152.22
161.17 K, Crystal 2	153.62
162.73 K, Crystal 2	154.86
164.35 K, Crystal 2	156.25
165.91 K, Crystal 2	156.39
167.53 K, Crystal 2	158.29
169.09 K, Crystal 2	159.91
172.12 K, Crystal 2	160.63
176.29 K, Crystal 2	162.82
180.3 K, Crystal 2	165.02
184.22 K, Crystal 2	166.35
188.18 K, Crystal 2	168.27
191.97 K, Crystal 2	170.46
195.83 K, Crystal 2	171.25
199.61 K, Crystal 2	172.21
203.33 K, Crystal 2	173.89
207.04 K, Crystal 2	175.99
210.68 K, Crystal 2	177.22
214.32 K, Crystal 2	179.68
217.96 K, Crystal 2	181.35
221.51 K, Crystal 2	183.72
225 K, Crystal 2	185.96
228.51 K, Crystal 2	187.72
231.95 K, Crystal 2	189.41
235.39 K, Crystal 2	192.26
238.79 K, Crystal 2	194.53
242.04 K, Crystal 2	198.57
245.39 K, Crystal 2	201.48
248.7 K, Crystal 2	203.61
252.08 K, Crystal 2	206.16
255.46 K, Crystal 2	208.87
258.7 K, Crystal 2	210.99
262.01 K, Crystal 2	212.53
265.32 K, Crystal 2	215.68
268.57 K, Crystal 2	217.65
271.77 K, Crystal 2	220.53
275 K, Crystal 2	224.17
278.12 K, Crystal 2	228.04
281.3 K, Crystal 2	231.99
284.42 K, Crystal 2	237.12
287.53 K, Crystal 2	241.14
290.52 K, Crystal 2	246.12
293.51 K, Crystal 2	256.15
296.36 K, Crystal 2	269.06
299.17 K, Crystal 2	287.71
301.89 K, Crystal 2	317.39
304.46 K, Crystal 2	360.73
306.87 K, Crystal 2	401.98
309.17 K, Crystal 2	438.39
311.36 K, Crystal 2	491.36
318.51 K, Crystal 1	314.18
320.91 K, Crystal 1	318.35
323.31 K, Crystal 1	325.56
325.78 K, Crystal 1	328.61
328.18 K, Crystal 1	335.06
330.58 K, Crystal 1	339.72
332.99 K, Crystal 1	345.04
335.32 K, Crystal 1	351.32
337.66 K, Crystal 1	358.41
340.01 K, Crystal 1	364.19
342.27 K, Crystal 1	369.83
344.55 K, Crystal 1	376.43
346.82 K, Crystal 1	381.43
349.03 K, Crystal 1	386.89
351.17 K, Crystal 1	394.15
353.25 K, Crystal 1	400.12
355.33 K, Crystal 1	406.54
357.27 K, Crystal 1	412.66
359.16 K, Crystal 1	419.26
360.91 K, Crystal 1	423.77
362.53 K, Crystal 1	426.99
364.09 K, Crystal 1	434.07
365.32 K, Crystal 1	439.39
366.56 K, Crystal 1	441.96
367.66 K, Crystal 1	446.63
368.51 K, Crystal 1	453.39
